Laboratory results from patent publication US10399949B2, “NK1 receptor antagonist” (KISSEI PHARMACEUTICAL CO., LTD., priority 2015, dated 2019).

What was measured:
human NK1 receptor [1] = target: T1, human NK1 receptor (Homo sapiens, UniProt P25103); assay: Affinity for human NK1 receptor (125I-substance P receptor binding test, membrane fraction); settings: membrane fraction of human NK1 receptor-expressing 293T cells, room temperature 60 minutes, read-out: pIC50 (inverse logarithm of the concentration required for 50% inhibition of 125I-substance P binding) (converted)
T1 construct: expressed in transfected cells; host or cells: 293T cells (RIKEN), transient transfection with pcDNA3.1(-) plasmid
Description: Affinity for Human NK1 Receptor
(3) Measurement of Binding Affinity to Human NK1 Receptor
(3-1) Preparation of Membrane Fraction from Human NK1 Receptor-Expressing Cells
Human NK1 receptor-expressing cells were prepared in a 175 cm^2 culture flask (Nippon Becton Dickinson). The formation of a complex of the human NK1 receptor expression plasmid and Lipofectamine 2000 was performed by calculating the culture area ratio and increasing the scale of the method described in the above 2-4 by the ratio. The human NK1 receptor-expressing cells were collected in a buffer solution for the membrane fraction preparation (50 mM Tris (Wako Pure Chemical), 120 mM sodium chloride (Wako Pure Chemical Industries), 5 mM potassium chloride (Wako Pure Chemical Industries), 1 mM ethylenediaminetetraacetic acid (Sigma), 0.002 mg/mL chymostatin (Peptide Institute), 0.04 mg/bacitracin (Wako Pure Chemical Industries), 0.005 mg/mL phosphoramidon (Peptide Institute) and 0.5 mM phenylmethylsulfonyl fluoride (Wako Pure Chemical Industries), pH7.4) and centrifuged at 1,880 g for 10 minutes, and the cell sediment was suspended in the buffer solution for the membrane fraction preparation. After freezing and thawing the cells once, the cells were homogenized using a Dounce-type homogenizer (cooled on ice, 1000 rpm, 20 times). The homogenized cell suspension was centrifuged at 20,000 rpm for 10 minutes, and the supernatant was removed to obtain cell sediment. The cell sediment was suspended again in the buffer solution for the membrane fraction preparation and homogenized using a Dounce-type homogenizer (cooled on ice, 1000 rpm, 30 times). The cell suspension was centrifuged at 20,000 rpm for 10 minutes, and the supernatant was removed to obtain cell sediment. The same homogenization and centrifugation were repeated again, and final cell sediment was obtained. The final cell sediment was suspended in a buffer solution for the receptor binding test (50 mM Tris (Wako Pure Chemical Industries), 3 mM manganese chloride (Wako Pure Chemical Industries), 0.002 mg/mL chymostatin (Peptide Institute), 0.04 mg/bacitracin (Wako Pure Chemical Industries) and 0.02% bovine serum albumin (Sigma), pH 7.4), and the protein concentration was measured using BCA Protein Assay Kit (Pierce).
(3-2) Receptor Binding Test
The buffer solution for the receptor binding test was dispensed to the wells of a 96-well assay plate (Greiner) at 22.5 μL/well. DMSO solutions of a test compound, which were prepared at an 80-time higher concentration using 100% dimethyl sulfoxide (DMSO), were added to the wells at 2.5 μL/well (final concentrations of 1 nM to 100 nM), and the solutions were mixed. As a radiolabeled ligand, ^125I-substance P (Substance P, [^125I]Tyr^8-, PerkinElmer) was used. ^125I-substance P was diluted with the buffer solution for the receptor binding test to a concentration resulting in […] and added to the 96-well assay plate, and the solutions were mixed. The membrane fraction prepared from the human NK1 receptor-expressing cells was diluted with the buffer solution for the receptor binding test to a concentration resulting in 8 to 10 μg/well, suspended until the suspension became in such a homogenous state that the suspension could flow through a 27G injection needle smoothly and then added to the 96-well assay plate at 150 μL/well. Then, the plate was incubated at room temperature for 60 minutes while shaking the plate. […]

human NK1 receptor [2] = target: T1, human NK1 receptor; assay: Inhibitory effect on human NK1 receptor (substance P-induced increase in intracellular calcium concentration); type: cell-based; settings: HEK-293T; substance P 0.1 μM; compound 1 μM; human NK1 receptor-expressing 293T cells; vehicle = 100%; read-out: SPRR (%) (Substance P-Response Remaining, intracellular calcium concentration)
Description: Inhibitory Effect on Human NK1 Receptor
(1) Preparation of Human NK1 Receptor-Expressing Cells
Human NK1 receptor-expressing cells were prepared by the same methods as those described in 2-3 and 2-4 of Test Example 1.
(2) Study on Inhibitory Effect on Increase in Intracellular Calcium Concentration
The human NK1 receptor-expressing cells were washed with 300 μL/well of a washing solution (20 mM HEPES/Hanks Balanced Salt Solution (HBSS) pH7.3). A fluorescent calcium indicator (Fluo-4 Direct Calcium Assay Kit, Life Technologies, containing 0.42 mM probenecid and 0.1% bovine serum albumin, prepared according to the protocol of the product) was added to the wells at 150 μL/well, and the plate was incubated at 37° C. for 30 minutes in an incubator. Then, DMSO solutions of a test compound, which were prepared at an 80-time higher concentration using 100% dimethyl sulfoxide (DMSO), were added to the wells at 2.5 μL/well (final concentrations of 0.1, 1 and 10 μM), and the solutions were mixed. Then, the plate was further incubated at 37° C. for 30 minutes in an incubator. After 30 minutes, the intracellular calcium concentrations were measured immediately.
The intracellular calcium concentrations were each measured as a fluorescent signal using FDSS® 7000 (Hamamatsu Photonics). A substance P (Peptide Institute, Inc.) solution which was prepared at 0.4 μM or 4 μM using an assay buffer (20 mM HEPES/Hanks Balanced Salt Solution (HBSS) pH 7.3 containing 0.1% bovine serum albumin) was added automatically to each well at 50 μL/well (final concentration of 0.1 or 1 μM) 10 seconds after starting reading, and the fluorescent signal was measured up to 120 seconds.
The intracellular calcium concentration (%) of the cells to which a test compound was added was calculated by the equation below, where the fluorescent signal of the group to which the vehicle (DMSO) was added was regarded as 100%, and the fluorescent signal before the addition of substance P was regarded as 0%. Intracellular calcium concentration (%)=(Fluorescent signal of test compound addition group)/(Fluorescent signal of vehicle addition group)×100
The intracellular calcium concentration (%) calculated was regarded as the remaining agonist activity of substance P (Substance P-Response Remaining: SPRR). In the table, Ex. No. means the Example number. SPRR (%) means the value obtained when the concentration of substance P was 0.1 μM and the concentration of the compound was 1 μM.

human CYP3A4 = target: T2, human CYP3A4 (Homo sapiens, UniProt P08684); assay: Inhibitory effect on CYP3A4 (Luciferin-IPA); type: in vitro ADME; settings: test compound 10 μM, 30-minutes pre-incubation, Luciferin-IPA 3 μM
T2 construct: purchased BD Biosciences
Description: Inhibitory Effect on CYP3A4
The dimethyl sulfoxide (DMSO) solution of the test compound with a concentration 1000 times higher than the evaluation concentration was prepared, and a reaction solution was prepared by diluting the solution. Enzyme reaction was performed by incubating in a potassium phosphate buffer solution (pH 7.4) containing 1 μM to 10 μM test compound, 3.2 mM magnesium chloride, 0.2 pmol human CYP3A4 (BD Biosciences), 0.5 mM reduced nicotinamide adenine dinucleotide phosphate (NADPH) and 3 μM Luciferin-IPA (Promega) at 37° C. for 10 minutes. The volume of the reaction solution was 50 μL/well. The 30-minutes pre-incubation group was incubated at 37° C. for 30 minutes before adding the substrate, the Luciferin-IPA solution (12.5 μL/well). At the end of the enzyme reaction, 50 μL/well of a Luciferin detection reagent (Promega) was added to the wells, and the plate was left at room temperature for 20 minutes. Then, the emission intensities were measured with Infinite M1000 (TECAN), and the enzyme activities (%) relative to the value of the group to which the test compound was not added. As a comparative example, aprepitant, which is an NK1 receptor antagonist, was tested in the same manner.
Test was measured by the above test method, and the results are shown in Table 9 when the concentration of the test compound was 10 μM. In the table, Ex. No. means the Example number, and Pre-incubation (30 min) (%) means the enzyme activities (%) of the 30-minutes pre-incubation groups using the test compounds.

T1 sequence (P25103 whole entry): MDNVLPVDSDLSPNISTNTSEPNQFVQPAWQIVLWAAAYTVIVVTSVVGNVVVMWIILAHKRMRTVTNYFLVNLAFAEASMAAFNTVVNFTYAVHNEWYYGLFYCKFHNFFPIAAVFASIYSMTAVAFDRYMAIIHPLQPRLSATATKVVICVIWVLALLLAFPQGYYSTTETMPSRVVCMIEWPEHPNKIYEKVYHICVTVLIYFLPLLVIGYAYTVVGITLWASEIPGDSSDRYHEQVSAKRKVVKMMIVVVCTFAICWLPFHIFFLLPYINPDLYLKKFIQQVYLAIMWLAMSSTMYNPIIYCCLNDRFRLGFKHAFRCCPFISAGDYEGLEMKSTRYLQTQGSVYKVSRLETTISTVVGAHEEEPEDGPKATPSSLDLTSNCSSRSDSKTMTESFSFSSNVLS
T2 sequence (P08684 whole entry): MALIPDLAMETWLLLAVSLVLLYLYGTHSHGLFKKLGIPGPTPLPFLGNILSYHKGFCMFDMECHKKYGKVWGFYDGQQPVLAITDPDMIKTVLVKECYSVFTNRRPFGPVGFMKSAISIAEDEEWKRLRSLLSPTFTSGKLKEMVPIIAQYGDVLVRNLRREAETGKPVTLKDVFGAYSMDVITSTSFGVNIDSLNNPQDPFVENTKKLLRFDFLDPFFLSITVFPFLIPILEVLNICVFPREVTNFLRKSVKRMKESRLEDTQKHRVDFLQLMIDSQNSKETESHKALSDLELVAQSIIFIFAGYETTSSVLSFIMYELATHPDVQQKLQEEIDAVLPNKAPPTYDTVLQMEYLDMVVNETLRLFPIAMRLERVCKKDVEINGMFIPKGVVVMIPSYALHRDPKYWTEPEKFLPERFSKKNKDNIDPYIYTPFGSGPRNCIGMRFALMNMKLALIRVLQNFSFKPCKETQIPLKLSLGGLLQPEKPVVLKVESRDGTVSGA

Row | IC50 (human NK1 receptor [1]) [nM] | remaining activity at 1 µM (human NK1 receptor [2]) [%] | Preincubation (30 min) (%) (enzyme activities relative to group without test compound) (human CYP3A4) | Compound
1 | 0.646 | 4.1 | 18 | Cc1cc(F)ccc1[C@H]1CN(C[C@H]2CC[C@@H](CC(=O)O)CC2)CC[C@@H]1C(=O)N(C)[C@@H](C)c1cc(C(F)(F)F)cc(C(F)(F)F)c1 [Example 13, cis-{4-[(3S,4S)-4-{[(S)-1-(3,5-Bistrifluoromethylphenyl)ethyl]methylcarbamoyl}-3-(4-fluoro-2-methylphenyl)piperidin-1-ylmethyl]cyclohexyl}acetic acid]
2 | 1.35 | 14 | 15 | Cc1cc(F)ccc1[C@H]1CN(C[C@H]2CC[C@H](CC(=O)O)CC2)CC[C@@H]1C(=O)N(C)[C@@H](C)c1cc(C(F)(F)F)cc(C(F)(F)F)c1 [Example 14, trans-{4-[(3 S,4S)-4-{[(S)-1-(3,5-Bistrifluoromethylphenyl)ethyl]methylcarbamoyl}-3-(4-fluoro-2-methylphenyl)piperidin-1-ylmethyl]cyclohexyl}lacetic acid]
